Results from patent US20090264415A2 (priority 2004, published 2009).

What follows are molecules tested on peripheral blood mononuclear cells (PBMC) stimulated with allogeneic PBMC or EBV-transformed human B cells (RPMI1788) (assay: Mixed lymphocyte reaction (MLR) assay). Settings: 50% suppression of the MLR, [3H]-thymidine incorporation; read-out: MLR.
Type: cell-based
Outline: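 Compounds, held as 10 mM DMSO stocks and diluted in culture medium, were added to PBMC stimulated by 30 Gy-irradiated allogeneic PBMC or RPMI1788 cells. Proliferation was read as [3H]-thymidine uptake (1 μCi, final 16 h) after 5 days at 37° C. Inhibition was derived from cpm.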

`COc1ccc(-c2ccc3ncnc(N4CCN(C(=O)Nc5ccc(F)cc5)CC4)c3n2)cc1OC` [Example 111, 4-[(N-4-fluorophenylcarbamoyl)-piperazin-1-yl]-6-(3,4-dimethoxyphenyl)-pyrido[3,2-d]pyrimidine] gave an IC50 of 30 nM.

Same assay, conditions: Homo sapiens, RPMI-1788; 50% suppression of the MLR, [3H]-thymidine incorporation; read-out: MLR

First: Nc1nc(N2CCN(C(=O)NCc3ccc(Cl)cc3)CC2)c2nc(-c3ccc(F)cc3)ccc2n1 [Example 189, 2-amino-4-[(N-4-chloro-benzylcarbamoyl)-piperazin-1-yl]-6-(4-fluorophenyl)-pyrido[3,2-d]pyrimidine]
Second: Nc1nc(N2CCOCC2)c2nc(-c3ccc(Cl)c(Cl)c3)ccc2n1 [184/231, 2-amino-4-(morpholino)-6-(3,4-dichlorophenyl)-pyrido[3,2-d]pyrimidine]
The IC50 of the first is 7.8-fold lower: 500 nM for the first, 3900 nM for the second.

In the case of `COc1ccc(Cl)c(Nc2nc(N)nc3ccc(-c4ccc(OC)c(OC)c4)nc23)c1` [Example 30, 2-amino-4-(2-chloro-5-methoxy-anilino)-6-(3,4-dimethoxyphenyl)pyrido[3,2-d]pyrimidine], the IC50 is reported as 10000 nM.

Same assay, conditions: Homo sapiens, RPMI-1788; MLR assay of example 319; read-out: MLR IC50

`Cc1cccc(NC(=O)N2CCN(c3ncnc4ccc(-c5cccs5)nc34)CC2)c1` [Example 562, 4-[(3-methylphenylcarbamoyl)-piperazin-1-yl]-6-(2-thienyl)pyrido[3,2-d]pyrimidine] and `Cc1cccc(NC(=O)N2CCN(c3ncnc4ccc(-c5cccc(C#N)c5)nc34)CC2)c1` [Example 554, 4-[(3-methylphenylcarbamoyl)-piperazin-1-yl]-6-(3-cyanophenyl)pyrido[3,2-d]pyrimidine] are within 1.5-fold of each other in IC50: 53 nM for the first, 37 nM for the second.

Compared with `Nc1nc(N2CCN(C(=O)COc3ccc(Cl)cc3)CC2)c2nc(-c3ccc(F)cc3F)ccc2n1` [Example 423, 2-amino-4-[4-(4-chlorophenoxyacetyl)piperazin-1-yl]-6-(2,4-difluorophenzyl)pyrido-[3,2-d]pyrimidine], `Nc1nc(N2CCN(C(=O)COc3ccc(Cl)cc3)CC2)c2nc(-c3ccc(Cl)cc3Cl)ccc2n1` [Example 427, 2-amino-4-[4-(4-chlorophenoxyacetyl)piperazin-1-yl]-6-(2,4-dichlorophenyl)-pyrido-[3,2-d]pyrimidine] is 3-fold higher in IC50: 100 nM for the first, 300 nM for the second. The first is the more potent here.

Going from `Nc1nc(N2CCN(C(=O)CNC(=O)c3ccccc3)CC2)c2nc(-c3ccc(F)cc3)ccc2n1` [Example 478, N-(2-{4-[2-amino-6-(4-fluorophenyl)-pyrido[3,2-d]pyrimidin-4-yl]-piperazin-1-yl}-2-oxoethyl)benzamide] to `Nc1nc(N2CCN(C(=O)CO)CC2)c2nc(-c3ccc(F)cc3)ccc2n1` [Example 437, 2-amino-4-[4-(2-hydroxyacetyl)piperazin-1-yl]-6-(4-fluorophenyl)-pyrido[3,2-d]pyrimidine], the IC50 rises from 5 nM to 1600 nM (320-fold).

First: Nc1nc(N2CCN(C(=O)COc3ccc(Cl)cc3)CC2)c2nc(-c3ccccc3Cl)ccc2n1 [Example 430, 2-amino-4-[4-(4-chlorophenoxyacetyl)piperazin-1-yl]-6-(2-chlorophenyl)pyrido-[3,2-d]pyrimidine]
Second: N#Cc1ccccc1-c1ccc2nc(N)nc(N3CCN(C(=O)COc4ccc(Cl)cc4)CC3)c2n1 [Example 416, 2-amino-4-[4-(4-chlorophenoxyacetyl)piperazin-1-yl]-6-(2-cyanophenyl)pyrido-[3,2-d]pyrimidine]
The IC50 of the first is 3.3-fold higher: 40 nM for the first, 12 nM for the second. The second is the more potent here.

Compared with `COc1ccc(-c2ccc3nc(N)nc(N4CCN(C(=O)COc5ccc(Cl)cc5)CC4)c3n2)cc1C` [Example 509, 2-amino-4-[N-(4-chlorophenoxyacetyl)-piperazin-1-yl]-6-(3-methyl-4-methoxyphenyl)-pyrido(3,2-d)pyrimidine], `COc1ccc(-c2ccc3nc(N)nc(N4CCN(C(=O)COc5ccc(Cl)cc5)CC4)c3n2)cc1Cl` [Example 517] is 2.6-fold lower in IC50: 31 nM for the first, 12 nM for the second.

Compared with `COc1cc(-c2ccc3nc(N)nc(N4CCN(C(=O)COc5ccc(Cl)cc5)CC4)c3n2)ccc1N` [Example 514, 2-amino-4-[N-(4-chlorophenoxyacetyl)-piperazin-1-yl]-6-(3-methoxy-4-amino-phenyl)-pyrido(3,2-d)pyrimidine], `Cc1cccc(-c2ccc3nc(N)nc(N4CCN(C(=O)COc5ccc(Cl)cc5)CC4)c3n2)c1` [Example 498, 2-amino-4-[N-(4-chlorophenoxyacetyl)-piperazin-1-yl]-6-(3-methyl-phenyl)-pyrido(3,2-d)pyrimidine] is 8.9-fold lower in IC50: 71 nM for the first, 8 nM for the second.

First: CC(C)(C)OC(=O)N1CCN(c2nc(Cl)nc3ccc(-c4ccc(F)cc4)nc23)CC1 [Example 566, 2-chloro-6-(4-fluorophenyl)-4-(4-Boc-piperazino)pyrido[3,2-d]pyrimidine]
Second: CC(C)N(C(=O)N1CCN(c2nc(N)nc3ccc(-c4ccc(F)cc4)nc23)CC1)C(C)C [Example 465, 2-amino-4-[4-(diisopropylcarbamoyl)piperazin-1-yl]-6-(4-fluorophenyl)-pyrido[3,2-d]pyrimidine]
The IC50 of the first is higher: greater than 10000 nM for the first, 3000 nM for the second.

`CC(=O)Nc1ccc(-c2ccc3nc(N)nc(N4CCN(C(=O)COc5ccc(Cl)cc5)CC4)c3n2)cc1` [Example 449, 2-amino-4-[4-(4-chlorophenoxyacetyl)piperazin-1-yl]-6-[4-(acetamido)phenyl]-pyrido-[3,2-d]pyrimidine] and `CCOC(=O)c1ccc(-c2ccc3nc(N)nc(N4CCN(C(=O)COc5ccc(Cl)cc5)CC4)c3n2)cc1` [Example 510, 2-amino-4-[N-(4-chlorophenoxyacetyl)-piperazin-1-yl]-6-(4-ethoxycarbonylphenyl)-pyrido(3,2-d)pyrimidine] are within 1.5-fold of each other in IC50: 39 nM for the first, 32 nM for the second.

Going from `COc1ccc(-c2ccc3nc(N)nc(N4CCN(C(=O)CC(C)(C)C)CC4)c3n2)cc1OC` [Example 392, 2-amino-4-[4-(3,3-dimethylbutyryl)piperazin-1-yl]-6-(3,4-dimethoxyphenyl)-pyrido[3,2-d]pyrimidine] to `COc1ccccc1-c1ccc2nc(N)nc(N3CCN(C(=O)COc4ccc(Cl)cc4)CC3)c2n1` [Example 422, 2-amino-4-[4-(4-chlorophenoxyacetyl)piperazin-1-yl]-6-(2-methoxyphenyl)pyrido-[3,2-d]pyrimidine], the IC50 falls from 300 nM to 100 nM (3-fold). The second is the more potent here.

Compared with `COCCNCc1nc(N2CCN(C(=O)Nc3cccc(C)c3)CC2)c2nc(-c3ccc(F)cc3)ccc2n1` [Example 538, 2-(N-methoxyethylamino)methyl-4-[N-(3-methylphenylcarbamoyl)piperazin-1-yl]-6-(4-fluorophenyl)-pyrido[3,2-d]pyrimidine], `CCOc1ccc(-c2ccc3ncnc(N4CCN(C(=O)Nc5cccc(C)c5)CC4)c3n2)cc1F` [Example 559, 4-[(3-methylphenylcarbamoyl)-piperazin-1-yl]-6-(3-fluoro-4-ethoxyphenyl)pyrido[3,2-d]pyrimidine] is 1.9-fold lower in IC50: 340 nM for the first, 178 nM for the second. The second is the more potent here.

Going from `O=C(COc1ccc(Cl)cc1)N1CCN(c2nc(NC3CCCC3)nc3ccc(-c4ccc(F)cc4)nc23)CC1` [Example 573, 2-cyclopentylamino-6-(4-fluorophenyl)-4-[N-(4-chlorophenoxyacetyl)-piperazin-1-yl]-pyrido[3,2-d]pyrimidine] to `N#Cc1ccc(-c2ccc3nc(N)nc(N4CCN(C(=O)COc5ccc(Cl)cc5)CC4)c3n2)cc1` [Example 400, 2-amino-4-[4-(4-chlorophenoxyacetyl)piperazin-1-yl]-6-(4-cyanophenyl)pyrido-[3,2-d]pyrimidine], the IC50 falls from 8000 nM to 50 nM (160-fold).

Going from `Cc1cccc(NC(=O)N2CCN(c3ncnc4ccc(-c5ccc(C#N)cc5)nc34)CC2)c1` [Example 553, 4-[(3-methylphenylcarbamoyl)-piperazin-1-yl]-6-(4-cyanophenyl) Pyrido[3,2-d]pyrimidine] to `CS(=O)(=O)Nc1cccc(-c2ccc3nc(N)nc(N4CCN(C(=O)COc5ccc(Cl)cc5)CC4)c3n2)c1` [Example 435, 2-amino-4-[4-(4-chlorophenoxyacetyl)piperazin-1-yl]-6-[N-3-(methanesulfonamidophenyl)]-pyrido-[3,2-d]pyrimidine], the IC50 falls from 60 nM to 6 nM (10-fold). The second is the more potent here.

The molecules below were run on production of human TNF-α by PBMC in response to LPS (assay: TNF-α assay (LPS-stimulated PBMC, sandwich ELISA)). Settings: Homo sapiens, PBMC; LPS 1 μg/ml, 72 hours; read-out: TNF α.
Type: cell-based
Protocol: Peripheral blood mononuclear cells (herein referred as PBMC), in response to stimulation by lipopolysaccharide (hereinafter LPS), a gram-negative bacterial endotoxin, produce various […], in particular human TNF-α. Inhibition of the activation of PBMC can therefore be measured by the level of suppression of the production of TNF-α by PBMC in response to stimulation by LPS. Inhibition measurement was performed as follows: PBMC were isolated from heparinized peripheral blood by density gradient centrifugation over Lymphoprep (commercially available from Nycomed, Norway). LPS was then added to the PMBC suspension in complete medium (10^6 cells/ml) at a final concentration of 1 μg/ml. The pteridine derivative to be tested was added at different concentrations (0.1 μM, 1 μM and 10 μM) and the cells were incubated at 37° C. for 72 hours in 5% CO2. The supernatants were collected, then TNF-α concentrations were measured with respectively an anti-TNF-α antibody in a sandwich ELISA (Duo Set ELISA human TNFα, commercially available from R&D Systems, United Kingdom). The colorimetric reading of the ELISA was measured by a Multiskan RC plate reader (commercially available from ThermoLabsystems, Finland) at 450 nm (reference wavelength: 690 nm). Data analysis was performed with Ascent software 2.6. (also from ThermoLabsystems, Finland): a standard curve (recombinant human TNFα) was drawn and the amount (pg/ml) of each sample on the standard curve was determined. The % suppression of human TNFα production by the pyrido[3,2-d]pyrimidine derivatives of the invention was calculated using the formula: [formula]

`COc1ccc(-c2ccc3nc(N)nc(NCC(=O)N4CCN(C)CC4)c3n2)cc1OC` [Example 276, 2-amino-4-[2-amino-1-(4-methyl-piperazin-1-yl)-ethanone]-6-(3,4-dimethoxyphenyl)-pyrido[3,2-d]pyrimidine] and `COc1ccc(-c2ccc3nc(N)nc(NCCC(=O)N4CCN(C(C)=O)CC4)c3n2)cc1OC` [Example 272, 2-amino-4-[3-(4-acetylpiperazin-1-yl)-propan-3-one-1-yl-amino]-6-(3,4-dimethoxyphenyl)-pyrido[3,2-d]pyrimidine] are within 1.5-fold of each other in IC50: 600 nM for the first, 700 nM for the second.

Molecule `COc1ccc(-c2ccc3nc(N)nc(N4CCN(CC(=O)NCCc5ccccc5)CC4)c3n2)cc1OC` [Example 270, 2-amino-4-[4-(N-2-phenylethylacetamid-2-yl)piperazin-1-yl]-6-(3,4-dimethoxyphenyl)-pyrido[3,2-d]pyrimidine] has an IC50 of 300 nM.
